Source: the supplement of paper PMC10307832

Columns and labels:
Experiment in all cases: relative viability (nuclei count vs DMSO), 5 days (fraction); higher = more cells survive
Erlotinib = compound: C#Cc1cccc(Nc2ncnc3cc(OCCOC)c(OCCOC)cc23)c1 [Erlotinib]
How it was run: (§1)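 Viability is treated-well nuclei as a fraction of vehicle-well nuclei, reported as the median across plates. Before counting, lung cancer cell lines were kept overnight at 37 °C in 1536-well plates, pinned with five √10-spaced library-drug doses on vehicle-anchored plates, and left 5 days without medium change, then fixed, permeabilised and Hoechst-stained in one step, imaged at 4× and counted by MetaXpress. A plate passed only if control CV was below 25% and at least one doubling occurred.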

Phenformin = compound: N=C(N)NC(=N)NCCc1ccccc1 [Phenformin] (anchor plate); conditions: 250 µM
How it was run: as §1

AT9283 = compound: O=C(Nc1c[nH]nc1-c1nc2ccc(CN3CCOCC3)cc2[nH]1)NC1CC1 [AT9283]
How it was run: as §1

| Cell Line | relative viability (Erlotinib; 0.02 µM) | relative viability (Erlotinib; 0.2 µM) | relative viability (Erlotinib; 0.6325 µM) | relative viability (Erlotinib; 2 µM) | relative viability (Phenformin) | relative viability (AT9283; 0.003 µM) | relative viability (AT9283; 0.03 µM) | relative viability (AT9283; 0.09487 µM) | relative viability (AT9283; 0.3 µM) |
| --- | --- | --- | --- | --- | --- | --- | --- | --- | --- |
| LCLC-103H | 1.03 | 0.919 | 1 | 0.929 | 0.348 | 0.885 | 1.02 | 0.926 | 0.376 |
| NCI-H661 | 1 | 0.939 | 1.01 | 0.81 | 0.285 | 0.981 | 0.491 | 0.388 | 0.39 |
| HCC-827 | 0.549 | 0.185 | 0.177 | 0.208 | 0.4 | 0.985 | 0.855 | 0.618 | 0.358 |
| NCI-H2023 | 0.966 | 0.89 | 0.946 | 0.758 | 0.43 | 1.03 | 0.935 | 0.266 | 0.138 |
| NCI-H2342 | 0.903 | 0.891 | 0.84 | 0.725 | 0.607 | 1.04 | 0.877 | 0.78 | 0.424 |
